# Laboratory results published in US20060216363A1, “Novel herbal composition” (priority 2005, published 2006).
# Assays:
# [1] = target: T1, MMP-8 (collagenase-2, stimulated human neutrophils) (Homo sapiens, UniProt P22894); assay: MMP-8 enzymatic assay; assay type: biochemical; details: reference agents; read-out: Concentration at 50 % Inhibition
# T1 construct: purchased Calbiochem 444229; host or cells: natural protein from stimulated human neutrophils
# Experimental: MMP-8 (collagenase-2, stimulated human neutrophils, Calbiochem Cat. 444229) was activated by p-aminophenylmercuric acetate for 60 minutes at 37° C. […] Enzyme activity was determined spectrofluorometrically by measuring the formation of fluorescent (7-methoxycoumarin-4-yl) acetyl-Pro-Leu-Gly.
# [2] = target: T2, MMP-13 proenzyme (human recombinant) (Homo sapiens, UniProt P45452); assay: MMP-13 enzymatic assay; assay type: biochemical; details: reference agents; read-out: Concentration at 50 % Inhibition
# T2 construct: purchased Calbiochem 444248; host or cells: Sf9 cell
# Experimental: MMP-13 proenzyme (human recombinant, expressed in Sf9 cell, Calbiochem Cat. 444248) was activated by p-aminophenylmercuric acetate for 60 minutes at 37° C. […] Enzyme activity was determined spectrofluorometrically by measuring the formation of fluorescent (7-methoxycoumarin-4-yl)acetyl-Pro-Leu-Gly.
# [3] = target: T3, MMP-3 (stromelysin-1, human recombinant catalytic domain) (Homo sapiens, UniProt P08254); assay: MMP-3 enzymatic assay; assay type: biochemical; details: reference agents; read-out: Concentration at 50 % Inhibition
# T3 construct: MMP-3 (stromelysin-1, human recombinant catalytic domain from Calbiochem Cat. 444217); purchased Calbiochem 444217
# T3 sequence (P08254 100-272 limits assumed): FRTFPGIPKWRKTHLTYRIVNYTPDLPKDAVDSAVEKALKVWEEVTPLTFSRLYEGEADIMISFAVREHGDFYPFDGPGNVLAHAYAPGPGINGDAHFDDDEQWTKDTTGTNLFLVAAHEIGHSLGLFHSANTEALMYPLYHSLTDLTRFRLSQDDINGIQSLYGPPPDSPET
# Experimental: MMP-3 (stromelysin-1, human recombinant catalytic domain from Calbiochem Cat. 444217) was activated by p-aminophenylmercuric acetate for 60 minutes at 37° C. […] Enzyme activity was determined spectrofluorometrically by measuring the formation of fluorescent (7-methoxycoumarin-4-yl)acetyl-Pro-Leu-Gly.
# [4] = Free radical scavenger, SOD mimetic activity (xanthine/xanthine oxidase/NBT); assay type: biochemical; details: reference agents; read-out: Concentration at 50 % Inhibition
# Experimental: Conversion of xanthine to uric acid+O^−+NBT to formazan was then determined by measurement of absorbance at 595 nm and percent inhibition by superoxide dismutase or test compound was calculated.
# chondrocytes [5] = assay: Nitric oxide determination (Griess) after fluid induced shear stress; assay type: cell-based, human; details: for NO Concentration: pretreated two weeks, 0.01 mg/ml or glucosamine 1 mM
# chondrocytes [6] = assay: Micromass culture of chondrocytes, staining for ALP, collagen and GAGs; assay type: cell-based, human; details: 1 mM, two weeks
# Experimental: Cells were grown for two weeks before measuring. […] Row A, B: alkaline phosphatase (ALP) stained by Naphthol AS-MX phosphate/Fast red; row C, D: collagen stained by Sirius red; row E, F: glycosaminoglycan stained by Safranin O.
# (§1) Human articular cartilage was obtained from patients who received total joint replacement with consent. The cartilage was digested with 1 mg/ml of Class 2 and Class 4 bacterial collagenase (Worthington Chemical, Freehold, N.J.) in DMEM containing 10% fetal calf serum (FCS) and 25 ug/ml Gentamicin (Gibco, Grand Island, N.Y.) (C-DMEM) at 37° C. overnight. The primary cells were plated at high density in 10 mm culture dish (Nunc, Roskilde, Danmark) in C-DMEM and cultured under humidified atmosphere containing 5% CO2 at 37° C.
# (§2) Ten ul of 1×10^7 cells in C-DMEM was seeded into the center of each well of 48 multiwell culture dish (Nunc, Roskilde, Danmark). Two hours later, 250 ul of F12/DMEM containing 5% FCS, 6.25 ug/ml bovine insulin, 25 ug/ml ascorbic acid and 100 nM Dexamethasone (induction medium) with various concentrations of herbal combinations or glucosamine (Sigma) was added. The media were changed twice a week for two weeks. At the end of the incubation, the media were changed with fresh DMEM. Twenty-four hours later, the media were collected for MMP zymography study and cells were fixed and stained for alkaline phosphatase (ALP), collagen or glycosaminoglycan using Naphthol AS-MX phosphate/Fast red, Sirius red, or Safranin O (Sigma), respectively.
# chondrocytes [7] = assay: Micromass culture of chondrocytes, herbal preparations in combination with glucosamine; assay type: cell-based, human
# Experimental: Expression was measured on micromass culture after cells grown for two weeks. Induction medium alone (left); with 0.1 mM glucosamine (middle); with 1 mM glucosamine (right). […] All the preparations were at 0.01 mg/ml. Row A, B: alkaline phosphatase (ALP) stained by Naphthol AS-MX phosphate/Fast red; row C, D: collagen stained by Sirius red; row E, F: glycosaminoglycans stained by Safranin O.
# as §1, §2
# chondrocytes [8] = assay: Gene expressions (RT-PCR) of shear-stressed vs. non-shear-stressed chondrocytes; assay type: cell-based, human; details: for Col I expression: glucosamine 1 mM
# Experimental: Confluent cells were treated with various herbal combinations in F12/DMEM containing 5% FCS, 6.25 ug/ml bovine insulin, 25 ug/ml ascorbic acid and 100 nM Dexamethasone for 2 weeks with medium changed twice a week. At the end of each treatment, cells were washed with PBS and incubated in DMEM overnight. Cells were then exposed to fluid-induced shear stress by a custom-made cone viscometer at the rate of 100 rpm for 2 hours. The shear stress induced at this speed was 0.82 Pa (8.2 dyn/cm^2). […] Another set of cells was treated similarly without shearing as the control. The cells were washed with PBS, and RNA was extracted by Tri-Reagent (Sigma).
# The RNA of cells was extracted with Tri-Reagent (Sigma). 800 ng of total RNA was reverse transcribed by Omniscript reverse transcriptase (Qiagen, Valencia, Calif.) in buffer containing 1 uM random primer, 0.5 mM each of dNTP, and 10 units of ribonuclease inhibitor. Reverse transcription was carried out at 37° C. for one hour by a programmable thermal controller (PTC-100, MJ Research, Inc., Watertown, Mass.). Reaction was terminated by raising the temperature to 93° C. for five minutes.
# PCR was performed in a thermal controller (PTC-100, MJ Research, Inc., Watertown, Mass.) with master mix (HotStarTaq DNA polymerase, Qiagen) at initial denaturation at 95° C. for 15 minutes, followed by 25 cycles of 94° C. for 1 minute, 58° C. for 40 seconds, and 72° C. for 40 seconds. The final cycle extended 72° C. for 10 minutes. The PCR products accompanied by 100 bp ET marker were separated by 1.2% agarose gel, stained with ethidium bromide and visualized under UV light. A Polaroid picture was taken by Foto/Phoresis UV documentation system (Fotodyne Inc.). Beta-actin expression under the same experimental conditions was used as a reference to normalize the expressions.
# MMP-2 = MMP-2 activities of chondrocyte culture supernatants by zymography; assay type: cell-based, human
# Experimental: Confluent cells were treated with various herbal combinations in F12/DMEM containing 5% FCS, 6.25 ug/ml bovine insulin, 25 ug/ml ascorbic acid and 100 nM Dexamethasone for 2 weeks with medium changed twice a week. At the end of each treatment, cells were washed with PBS and incubated in DMEM overnight. Cells were then exposed to fluid-induced shear stress by a custom-made cone viscometer at the rate of 100 rpm for 2 hours. The shear stress induced at this speed was 0.82 Pa (8.2 dyn/cm^2). Aliquots of culture medium were collected at designated time for nitric oxide measurement and MMP zymography analysis. Another set of cells was treated similarly without shearing as the control.
# Equal amount of protein of each culture medium was mixed with equal volume of 2× non-reducing SDS sample buffer, and incubated at room temperature for two hours for sample to denature. The samples were loaded into each well of a 10% SDS polyacrylamide gel containing 1 mg/ml of bovine gelatin (Sigma), and run at 20 mA in ice bath by a BioRad Mini Protean gel apparatus. After dye front reached the bottom of the gel, the gel was washed three times, 15 minutes each, with 2.5% Triton X-100. Then, the gel was renatured in developing buffer (50 mM Tris-HCl, pH7.6, 10 mM CaCl2, 50 mM NaCl, 0.05% Brij35) at 37° C. for 48 hours. […]
# [9] = system: bone marrow mesenchymal stem cells; assay: Micromass culture of bone marrow mesenchymal stem cells, staining for ALP, collagen and GAGs; assay type: cell-based, human; details: 1 mM
# Experimental: Herbal preparations were treated to cells grown in the induction medium in micromass culture for two weeks.
# Human bone marrow mesenchymal stem cells were obtained from patients receiving total joint replacement with consent. The cells were cultured in DMEM containing 10% fetal calf serum (FCS), and 25 ug/ml Gentamicin (Gibco, Grand Island, N.Y.) (C-DMEM) at 37° C. under humidified atmosphere containing 5% CO2.
# as §2
# TIMP = TIMP activities of chondrocyte culture supernatants by reverse zymography; assay type: cell-based, human; details: non-sheared
# Experimental: Confluent cells were treated with various herbal combinations in F12/DMEM containing 5% FCS, 6.25 ug/ml bovine insulin, 25 ug/ml ascorbic acid and 100 nM Dexamethasone for 2 weeks with medium changed twice a week. At the end of each treatment, cells were washed with PBS and incubated in DMEM overnight. Cells were then exposed to fluid-induced shear stress by a custom-made cone viscometer at the rate of 100 rpm for 2 hours. The shear stress induced at this speed was 0.82 Pa (8.2 dyn/cm^2). […] Another set of cells was treated similarly without shearing as the control.
# Equal amount of protein of each culture medium was mixed with equal volume of 2× non-reducing SDS sample buffer, and incubated at room temperature for two hours for sample to denature. The samples were loaded into each well of a 10% SDS polyacrylamide gel containing 1 mg/ml of bovine gelatin (Sigma) and 1 ml serum free 24 hour's culture supernatant of human foreskin dermal fibroblast which expressed MMP, and run at 20 mA in ice bath by a BioRad Mini Protean gel apparatus. After dye front reached the bottom of the gel, the gel was washed three times, 15 minutes each, with 2.5% Triton X-100. Then, the gel was renatured in developing buffer (50 mM Tris-HCl, pH7.6, 10 mM CaCl2, 50 mM NaCl, 0.05% Brij35) at 37° C. for 48 hours. […]
# chondrocyte = details: Okazaki M, Osteoarthritis Cartilage 2003; cited from earlier work
# T1 sequence (P22894 101-467): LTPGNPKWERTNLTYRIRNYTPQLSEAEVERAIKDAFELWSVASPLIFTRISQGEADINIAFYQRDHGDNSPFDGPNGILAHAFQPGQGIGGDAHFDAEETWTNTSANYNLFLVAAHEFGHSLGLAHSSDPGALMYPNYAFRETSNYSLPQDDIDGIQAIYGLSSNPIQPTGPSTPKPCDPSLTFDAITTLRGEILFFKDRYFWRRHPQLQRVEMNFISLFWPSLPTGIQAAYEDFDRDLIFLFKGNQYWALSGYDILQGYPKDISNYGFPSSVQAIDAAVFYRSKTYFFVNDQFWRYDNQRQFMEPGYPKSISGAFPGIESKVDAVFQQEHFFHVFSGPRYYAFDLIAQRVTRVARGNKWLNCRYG
molecule,measurement,setting,value
"TIMP-1: tissue inhibitor of matrix metalloproteinase, comparison agent in the MMP assays",IC50,[1],3.9 nM
same,IC50,[2],6.8 nM
same,IC50,[3],7.6 nM
O=C(O[C@@H]1Cc2c(O)cc(O)cc2O[C@@H]1c1ccc(O)c(O)c1)c1cc(O)c(O)c(O)c1 [(−)-Epicatechin gallate],IC50,[4],6100 nM
N[C@H]1C(O)O[C@H](CO)[C@@H](O)[C@@H]1O (some centres unmarked) [glucosamine],NO Concentration,"chondrocytes [5]; Non-sheared, 0 h",0.40 µM
same,NO Concentration,"chondrocytes [5]; Non-sheared, 2 h",0.00 µM
same,NO Concentration,"chondrocytes [5]; Non-sheared, 4 h",0.00 µM
same,NO Concentration,"chondrocytes [5]; Non-sheared, 7 h",0.00 µM
same,NO Concentration,"chondrocytes [5]; Non-sheared, 24 h",0.00 µM
same,NO Concentration,"chondrocytes [5]; Non-sheared, (2 h)",0.17 µM
same,NO Concentration,"chondrocytes [5]; Sheared, 0 h",4.58 µM
same,NO Concentration,"chondrocytes [5]; Sheared, 2 h",4.75 µM
same,NO Concentration,"chondrocytes [5]; Sheared, 4 h",4.58 µM
same,NO Concentration,"chondrocytes [5]; Sheared, 7 h",4.42 µM
same,NO Concentration,"chondrocytes [5]; Sheared, 24 h",4.72 µM
same,NO Concentration,"chondrocytes [5]; Sheared, (2 h)",0.85 µM
same,inhibition of NO production,"chondrocytes [5]; fluid induced shear stress 100 rpm (0.82 Pa), two hours",55%
same,ALP,chondrocytes [6]; Naphthol AS-MX phosphate/Fast red,did not show effects
same,GAGs,chondrocytes [6]; Safranin O,did not show effects
same,Collagen,chondrocytes [6]; Sirius red,did not show effects
same,baseline GAG synthesis,chondrocytes [7]; 0.1 mM glucosamine,slightly increased
same,baseline collagen synthesis,chondrocytes [7]; 0.1 mM glucosamine,slightly increased
same,effect of glucosamine on the activity of herbal preparations,"chondrocytes [7]; glucosamine 0.1 or 1 mM, preparations 0.01 mg/ml",did not affect the activity of herbal preparations
same,aggrecanase expression,chondrocytes [8]; non-shear-stressed,inhibited aggrecanase expression
same,expression of aggrecan,chondrocytes [8]; non-shear-stressed,inhibited the expression of aggrecan significantly
same,BMP-2 expression,chondrocytes [8]; non-sheared,inhibited its expression completely
same,Col I expression,chondrocytes [8]; non-sheared,inhibited Col I expression significantly
same,BMP-2 expression,chondrocytes [8]; shear-stressed,showed less activity
same,aggrecanase expression,chondrocytes [8]; shear-stressed,slight increase in aggrecanase expression
same,expression of aggrecan,chondrocytes [8]; shear-stressed,slightly increased aggrecan expression
same,MMP-2 expression,chondrocytes [8]; shear-stressed and non-shear-stressed,not to be affected
same,Col I expression,chondrocytes [8]; sheared,no effect
same,"active and latent forms of MMP-2 (68 K, 72 K bands)",MMP-2; non-sheared,showed same profiles as controls
same,"active and latent forms of MMP-2 (68 K, 72 K bands)",MMP-2; sheared,showed same profiles as controls
same,ALP,[9],did not show significant effects
same,GAGs synthesis,[9],did not show significant effects
same,collagen synthesis,[9],did not show significant effects
same,"TIMP (41 K band, >118 K band)",TIMP,decrease of TIMP
CCOC(CN1C(=O)[C@](CC(=O)Nc2ccc(C)cc2)(NC(=O)Nc2ccc(C)cc2)c2ccccc21)OCC [AG-041R],ALP activity,chondrocyte,suppressed ALP activity
same,"expression of type II collagen, aggrecan and BMP-2 genes",chondrocyte,up-regulated
same,proteoglycan synthesis,chondrocyte,accelerated proteoglycan synthesis
